Here are results for five compounds from patent EP2623098B1, “Amide Amino Acid Esters of Nonsteroidal Anti-Inflammatory Drugs (NSAIDs) as Potent Inhibitors of Tumor Cell Growth” (King Saud University, priority 2012, dated 2013).

Molecules are shown by their SMILES.

In this experiment the test system is HT-29 human colon adenocarcinoma cells. The experiment in a line: Tumor cell growth inhibition assay (Cell Titer Glo, cell viability), HT-29. It counts as cell-based. The settings on record: HT-29 cells, 72 hours treatment. As to the method:
The human colon adenocarcinoma cell lines were obtained from ATCC and grown under standard cell culture conditions in RPMI 1640 medium containing 5% fetal bovine serum (FBS) at 37°C in a humidified atmosphere with 5% CO2.
Tissue culture treated 96-well microtiter plates were seeded at a density of 5,000 cells/well. For growth inhibition assays, cells were incubated at 37°C for 18-24 hours, treated with the specified compound or vehicle (0.1% DMSO final) control, and incubated at 37°C an additional 72 hours. The effect of treatment on cell viability was determined using the luminescent Cell Titer Glo Assay (Promega).
HT-29 human colon adenocarcinoma cells were treated with compounds of the invention and grown under standard cell culture conditions. […]
For orientation: Cellular ATP, detected with luciferase, serves as a proxy for viable cell number.

Turning to `CCOC(=O)CCNC(=O)C(C)c1ccc2cc(OC)ccc2c1` (centres unmarked) [IV], the half-maximal inhibitory concentration (IC50) worked out at 123 µM.

`COC(=O)CC(NC(=O)C(C)c1ccc2cc(OC)ccc2c1)C(=O)OC` (centres unmarked) [IX] displayed an IC50 of 121 µM.

For `COC(=O)C(CC(C)C)NC(=O)C(C)c1ccc2cc(OC)ccc2c1` (centres unmarked) [VII], inhibition was half-maximal at 34.5 µM (IC50). Then `CCOC(=O)C(CCSC)NC(=O)C(C)c1ccc2cc(OC)ccc2c1` (centres unmarked) [XII], with 49.3 µM; and `CCOC(=O)C(NC(=O)C(C)c1ccc2cc(OC)ccc2c1)C(C)C` (centres unmarked) [XI], with 29.4 µM.

As usually defined, the IC50 is the midpoint of a concentration-inhibition curve. Low readings indicate inhibition by little substance, high ones a need for much substance.
